In ChEMBL document CHEMBL1201862, “PubChem BioAssay data set” (2004):
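Cultured in 96-well plates, cells were exposed to test compound for 48 hours across five concentrations. Abbreviation: GI50, concentration required for 50% inhibition of growth.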 The source made the active and inactive calls. Rule as the data show it: active = GI50 up to about 1.1 µM and inactive = higher.

What was measured:
Experiment in all cases: DTP human tumour cell line panel, 48 h
[1] = tested on: MDA-MB-231
[2] = tested on: T47D
[3] = tested on: CCRF-CEM
[4] = tested on: SF-268
[5] = tested on: OVCAR-8
[6] = tested on: HCC 2998
[7] = tested on: IGROV-1
[8] = tested on: NCI-H226
[9] = tested on: SK-OV-3
[10] = tested on: NCI-H522
[11] = tested on: PC-3
[12] = tested on: NCI/ADR-RES
[13] = tested on: RPMI-8226
[14] = tested on: SR
[15] = tested on: A549
[16] = tested on: U-251
[17] = tested on: NCI-H23
[18] = tested on: OVCAR-4
[19] = tested on: BT-549

Compound	GI50 [1]	GI50 [2]	GI50 [3]	GI50 [4]	GI50 [5]	GI50 [6]	GI50 [7]	GI50 [8]	GI50 [9]	GI50 [10]	GI50 [11]	GI50 [12]	GI50 [13]	GI50 [14]	GI50 [15]	GI50 [16]	GI50 [17]	GI50 [18]	GI50 [19]
O=C(Nn1c(-c2ccccc2)nc2ccccc2c1=O)c1ccc([N+](=O)[O-])cc1	> 100 µM (inactive)	> 100 µM (inactive)	> 100 µM (inactive)	> 100 µM (inactive)	> 100 µM (inactive)	> 100 µM (inactive)	> 100 µM (inactive)	46.3 µM (inactive)	> 100 µM (inactive)	> 100 µM (inactive)	> 100 µM (inactive)	> 100 µM (inactive)	> 100 µM (inactive)	> 100 µM (inactive)	> 100 µM (inactive)	> 100 µM (inactive)	> 100 µM (inactive)	> 100 µM (inactive)	55.7 µM (inactive)
Oc1ccccc1-n1nc2ccc3nonc3c2n1	> 100 µM (inactive)	> 100 µM (inactive)	> 100 µM (inactive)	> 100 µM (inactive)	> 100 µM (inactive)	40.9 µM (inactive)	> 100 µM (inactive)	> 100 µM (inactive)	> 100 µM (inactive)	> 100 µM (inactive)	> 100 µM (inactive)	> 100 µM (inactive)	> 100 µM (inactive)	> 100 µM (inactive)	> 100 µM (inactive)	> 100 µM (inactive)	> 100 µM (inactive)	> 100 µM (inactive)	> 100 µM (inactive)
O=C(O)c1ccc(CNCc2ccccc2)cc1	> 100 µM (inactive)	> 100 µM (inactive)	> 100 µM (inactive)	> 100 µM (inactive)	> 100 µM (inactive)	–	> 100 µM (inactive)	> 100 µM (inactive)	> 100 µM (inactive)	> 100 µM (inactive)	> 100 µM (inactive)	> 100 µM (inactive)	> 100 µM (inactive)	> 100 µM (inactive)	> 100 µM (inactive)	> 100 µM (inactive)	> 100 µM (inactive)	> 100 µM (inactive)	> 100 µM (inactive)
C=C1CCC(O)C/C1=C/C=C1\CCCC2(C)C1CCC2C(C)CCCC(C)C (stereo not given)	19.9 µM (inactive)	19 µM (inactive)	24.5 µM (inactive)	23 µM (inactive)	18.1 µM (inactive)	21.2 µM (inactive)	17.3 µM (inactive)	16 µM (inactive)	22.8 µM (inactive)	17.5 µM (inactive)	18.8 µM (inactive)	18.2 µM (inactive)	23.8 µM (inactive)	18.5 µM (inactive)	19.6 µM (inactive)	18.6 µM (inactive)	18.5 µM (inactive)	18.1 µM (inactive)	19.5 µM (inactive)
C/N=C(N)/N=C(\N)Nc1cc2ccccc2c2ccccc12	13.3 µM (inactive)	14.8 µM (inactive)	7.74 µM (inactive)	13.4 µM (inactive)	16.8 µM (inactive)	2.44 µM (inactive)	17.9 µM (inactive)	20.7 µM (inactive)	16.3 µM (inactive)	13.1 µM (inactive)	15.8 µM (inactive)	20.6 µM (inactive)	15.5 µM (inactive)	13.8 µM (inactive)	14.2 µM (inactive)	15.2 µM (inactive)	17.1 µM (inactive)	14.7 µM (inactive)	15.1 µM (inactive)
CCO/C(Cc1ccc(Cl)cc1)=N/NC(N)=S	> 100 µM (inactive)	27.8 µM (inactive)	> 100 µM (inactive)	–	> 100 µM (inactive)	> 100 µM (inactive)	> 100 µM (inactive)	> 100 µM (inactive)	> 100 µM (inactive)	–	> 100 µM (inactive)	> 100 µM (inactive)	–	> 100 µM (inactive)	> 100 µM (inactive)	> 100 µM (inactive)	> 100 µM (inactive)	> 100 µM (inactive)	> 100 µM (inactive)
COc1ccc(-c2nc(N)c(C#N)c3c2CCSc2ccc(C)cc2-3)cc1OC	8.22 µM (inactive)	4.17 µM (inactive)	4.12 µM (inactive)	17.2 µM (inactive)	22.4 µM (inactive)	16.3 µM (inactive)	23.1 µM (inactive)	14.8 µM (inactive)	10.9 µM (inactive)	5.89 µM (inactive)	8.51 µM (inactive)	12.3 µM (inactive)	0.594 µM (active)	2.6 µM (inactive)	12.3 µM (inactive)	18.1 µM (inactive)	8.04 µM (inactive)	16.7 µM (inactive)	8.59 µM (inactive)
C/C(=N\Nc1nc2ccccc2s1)c1cnccn1	0.757 µM (active)	0.769 µM (active)	0.318 µM (active)	1.16 µM (inactive)	1.7 µM (inactive)	7.21 µM (inactive)	0.406 µM (active)	0.247 µM (active)	2.08 µM (inactive)	0.265 µM (active)	2.12 µM (inactive)	1.74 µM (inactive)	2.89 µM (inactive)	0.652 µM (active)	3.3 µM (inactive)	3.67 µM (inactive)	1.94 µM (inactive)	16.7 µM (inactive)	11.1 µM (inactive)
C[N+](C)(C)CC1CCCCCCCCCCC1=O (stereo not given)	> 100 µM (inactive)	> 100 µM (inactive)	> 100 µM (inactive)	> 100 µM (inactive)	> 100 µM (inactive)	> 100 µM (inactive)	> 100 µM (inactive)	> 100 µM (inactive)	> 100 µM (inactive)	> 100 µM (inactive)	> 100 µM (inactive)	> 100 µM (inactive)	> 100 µM (inactive)	> 100 µM (inactive)	> 100 µM (inactive)	> 100 µM (inactive)	> 100 µM (inactive)	> 100 µM (inactive)	> 100 µM (inactive)
Cc1cc(C)c(C2=NOC(c3ccccc3)(c3cc(=O)n(-c4ccccc4)s3)O2)c(C)c1 (stereo not given)	30.8 µM (inactive)	17.3 µM (inactive)	23.8 µM (inactive)	44.2 µM (inactive)	18.7 µM (inactive)	32.5 µM (inactive)	37.1 µM (inactive)	31.5 µM (inactive)	> 100 µM (inactive)	17.5 µM (inactive)	30.9 µM (inactive)	23.3 µM (inactive)	37 µM (inactive)	89.7 µM (inactive)	29.5 µM (inactive)	24.7 µM (inactive)	20.6 µM (inactive)	53.1 µM (inactive)	24.8 µM (inactive)
O=C1/C(=C/c2ccc(O)cc2)CCCC1CN1CCCCC1 (stereo not given)	2.27 µM (inactive)	2.32 µM (inactive)	2.57 µM (inactive)	3.44 µM (inactive)	5.92 µM (inactive)	4.76 µM (inactive)	1.97 µM (inactive)	7.14 µM (inactive)	16.6 µM (inactive)	1.25 µM (inactive)	5.38 µM (inactive)	8.2 µM (inactive)	1.32 µM (inactive)	1.39 µM (inactive)	17.2 µM (inactive)	7.91 µM (inactive)	5.12 µM (inactive)	12.9 µM (inactive)	2.55 µM (inactive)
COc1cc2c(cc1OCc1ccccc1)NC(=O)[C@@H]1C[C@@H](O)CN1C2=O	75 µM (inactive)	> 100 µM (inactive)	> 100 µM (inactive)	> 100 µM (inactive)	> 100 µM (inactive)	> 100 µM (inactive)	> 100 µM (inactive)	> 100 µM (inactive)	> 100 µM (inactive)	> 100 µM (inactive)	> 100 µM (inactive)	> 100 µM (inactive)	> 100 µM (inactive)	47 µM (inactive)	> 100 µM (inactive)	> 100 µM (inactive)	> 100 µM (inactive)	> 100 µM (inactive)	> 100 µM (inactive)
COc1cnc2cc(C(=O)O)c3c([N+](=O)[O-])cccc3c2c1	> 100 µM (inactive)	> 100 µM (inactive)	> 100 µM (inactive)	> 100 µM (inactive)	> 100 µM (inactive)	> 100 µM (inactive)	> 100 µM (inactive)	> 100 µM (inactive)	> 100 µM (inactive)	> 100 µM (inactive)	> 100 µM (inactive)	> 100 µM (inactive)	> 100 µM (inactive)	> 100 µM (inactive)	> 100 µM (inactive)	> 100 µM (inactive)	> 100 µM (inactive)	> 100 µM (inactive)	> 100 µM (inactive)
COc1cc(NCCC2CCCCN2)c2ncccc2c1 (stereo not given)	34.8 µM (inactive)	0.397 µM (active)	25.1 µM (inactive)	> 92.7 µM (inactive)	> 100 µM (inactive)	16.4 µM (inactive)	8.87 µM (inactive)	> 63.8 µM (inactive)	> 100 µM (inactive)	55.7 µM (inactive)	74.5 µM (inactive)	> 100 µM (inactive)	> 48.3 µM (inactive)	27.3 µM (inactive)	> 96.6 µM (inactive)	56.4 µM (inactive)	> 100 µM (inactive)	> 70.5 µM (inactive)	> 100 µM (inactive)
O=C1C=C(c2ccccc2)O/C1=C/C(=O)c1ccc(Cl)cc1	17.2 µM (inactive)	> 10 µM (inactive)	3.35 µM (inactive)	23.9 µM (inactive)	23.1 µM (inactive)	15.4 µM (inactive)	18.3 µM (inactive)	> 10 µM (inactive)	36.1 µM (inactive)	11.1 µM (inactive)	14.2 µM (inactive)	22.1 µM (inactive)	3.33 µM (inactive)	2.93 µM (inactive)	–	15.7 µM (inactive)	> 10 µM (inactive)	15.6 µM (inactive)	16.2 µM (inactive)
